# Laboratory results taken from US8865724B2, “Preparation of 2-methyl-4-amino-5(substituted-1H-1,2,3-triazolyl)methylpyrimidine derivatives and microbicidal activity thereof” (Central China Normal University, priority 2011, dated 2014).
# Read-outs that look alike come from different tables or passages of the source.
# Legend:
# [1] = tested on: Cucumber Angular Leaf Spot; assay: Microbicidal activity on cucumber seedlings, spray then inoculation (Embodiment 7); conditions: for Cucumber bacterial spot (%), controlling effect: testing concentration of 500 μg/g, cucumber seedling; for pest or weed control at 500 µg/g: Cucumis sativus, read-out: Cucumber bacterial spot (%), controlling effect
# Experimental: Testing Materials: Strain: Cucumber Angular Leaf Spot
# Testing method: a cucumber seedling at the stage of 2 seminal leaves was inoculated by spraying a suspension of Cucumber Angular Leaf Spot. Testing agents and control agents were sprayed uniformly on the seminal leaves at A.M. of a sunshine day respectively. After 2 hours, the leaves were inoculated with pathogenic microbes and cultured at humidity. After full occurrence of disease in control group, state of illness was examined according to grading standards, and the controlling effects were measured.
# [2] = tested on: Cucumber Angular Leaf Spot; assay: Microbicidal activity on cucumber seedlings, spray then inoculation (Embodiment 8); conditions: for Cucumber Angular Leaf Spot Average inhibition rate (%): testing concentration of 500 μg/g; for pest or weed control at 500 µg/g: Cucumis sativus, read-out: Cucumber Angular Leaf Spot Average inhibition rate (%)
# Experimental: (§1) (Pseudomonassyringaepv. tomato (Okabe) Young, Dye & Wilkie), Cucumber Angular Leaf Spot, Rice Sheath Blight Disease (Rhizoctonia solani), Corynespora Leaf Spot of Cucumber (Corynespora cassiicola), Downy Mildew of Cucumber (Cucumber Downy Mildew).
# (§2) Testing agents and control agents were sprayed uniformly at A.M. of a sunshine day on the cucumber seminal leaves. After 2 hours, the leaves were inoculated with pathogenic microbes and cultured at humidity. […] Strip inoculation is used for Rice Sheath Blight Disease and phytophthora blight of pepper, in which the liquor was sprayed and after 2 hours, inoculation of strips was performed followed by culturing at humidity. After full occurrence of diseases in the control group, state of illness was examined according to grading standards, and a disease index and inhibition rate were calculated.
# Downy Mildew of Cucumber = assay: Microbicidal activity on cucumber seedlings, spray then spore inoculation (Embodiment 8); conditions: for pest or weed control at 500 µg/g: Cucumis sativus, read-out: Downy Mildew of Cucumber Average inhibition rate (%)
# Experimental: as §1, §2
# [3] = tested on: Rice Sheath Blight Disease; assay: Microbicidal activity, spray then strip inoculation (Embodiment 8); conditions: for pest or weed control at 500 µg/g: Oryza sativa, read-out: Rice Sheath Blight Disease Average inhibition rate (%)
# Experimental: as §1, §2
# tobacco brown spot = assay: microbe, parasite or virus in culture; assay type: cell-based, Alternaria alternate (Fries) Keissler; conditions: 48 h, testing concentration of 100 μg/g; Table 4; read-out: Tobacco brown spot Average inhibition rate (%)
# [4] = tested on: Corynespora Leaf Spot of Cucumber; assay: Microbicidal activity on cucumber seedlings, spray then spore inoculation (Embodiment 8); conditions: for pest or weed control at 500 µg/g: Corynespora, in Cucumis sativus, read-out: Corynespora Leaf Spot of Cucumber Average inhibition rate (%)
# Experimental: as §1, §2
# gray mold of cucumber = assay: Spawn growth rate on agar plates (Embodiment 9); assay type: cell-based, Botrytis cinerea; conditions: 48 h; for inhibition of growth at 100 µg/g: testing concentration of 100 μg/g, read-out: Gray mold of cucumber Average inhibition rate (%); for inhibition of growth at 12.5 µg/g: Concentration 12.5 μg/g; for inhibition of growth at 12.5 µg/g / inhibition of growth at 25 µg/g / inhibition of growth at 50 µg/g: Table 8; for inhibition of growth at 25 µg/g: Concentration 25 μg/g; for inhibition of growth at 50 µg/g: Concentration 50 μg/g
# anthracnose of cucumber = assay: Spawn growth rate on agar plates (Embodiment 9); assay type: cell-based, GloeosporiumorbiculareArs; conditions: 48 h; testing concentration of 100 μg/g; Table 5
# wheat scab = assay: microbe, parasite or virus in culture; assay type: cell-based, Gibberella zeae; conditions: 48 h, read-out: Wheat scab Average inhibition rate (%)
# early blight of tomato = assay: Spawn growth rate on agar plates (Embodiment 9); assay type: cell-based, Alternaria solania; conditions: 48 h, testing concentration of 100 μg/g
# [5] = tested on: Rice Sheath Blight Disease (sheath and culm blight of rice); assay: Spawn growth rate on agar plates (Embodiment 9); assay type: cell-based, Rhizoctonia solani; conditions: 48 h; for inhibition of growth at 12.5 µg/g: Concentration 12.5 μg/g; for inhibition of growth at 12.5 µg/g / inhibition of growth at 25 µg/g / inhibition of growth at 50 µg/g: Table 8; for inhibition of growth at 25 µg/g: Concentration 25 μg/g; for inhibition of growth at 50 µg/g: Concentration 50 μg/g; for inhibition of growth at 100 µg/g: testing concentration of 100 μg/g, Table 6, read-out: Sheath and culm blight of rice Average inhibition rate (%)
# [6] = testing concentration of 500 μg/g
Compound,pest or weed control at 500 µg/g (Downy Mildew of Cucumber),pest or weed control at 500 µg/g [3],inhibition of growth at 100 µg/g (tobacco brown spot),pest or weed control at 500 µg/g [4],inhibition of growth at 100 µg/g (gray mold of cucumber; Table 4),inhibition of growth at 100 µg/g (anthracnose of cucumber),pest or weed control at 500 µg/g [2],inhibition of growth at 100 µg/g (wheat scab),melting point,pest or weed control at 500 µg/g [1],further results
"S=c1[nH]nc(NCNc2n[nH]c(=S)s2)s1 [Bismerthiazol, reference compound]",–,–,–,–,–,–,–,–,–,–,"Cucumber bacterial spot (%), controlling effect [1]: 73.14%; Cucumber Angular Leaf Spot Average inhibition rate (%) [2]: 73%"
Cc1ncc(Cn2cc(COc3ccc(Cl)cc3)nn2)c(N)n1 [Compound 2],75%,80%,52%,55%,73%,50%,60%,51%,168 to 170 °C,–,–
Cc1ncc(Cn2cc(COc3cccc(C(F)(F)F)c3)nn2)c(N)n1 [Compound 4],35%,60%,66%,70%,77%,65%,60%,–,160 to 161 °C,–,inhibition of growth at 100 µg/g (early blight of tomato; Table 5): 51%
Cc1ccc(Cl)c(OCc2cn(Cc3cnc(C)nc3N)nn2)c1 [Compound 5],70%,80%,56%,70%,67%,–,50%,–,184 to 185 °C,–,–
Cc1ncc(Cn2cc(COc3ccc(C(=O)O)cc3)nn2)c(N)n1 [Compound 7],40%,70%,57%,70%,67%,–,55%,–,> 260 °C,–,–
Cc1ncc(Cn2cc(COc3ccc(Cl)cc3Cl)nn2)c(N)n1 [Compound 10],50%,70%,58%,70%,56%,64%,60%,–,175 to 177 °C,–,–
Cc1ncc(Cn2cc(COc3cccc(C)c3C)nn2)c(N)n1 [Compound 14],35%,70%,60%,90%,54%,–,60%,–,202 to 204 °C,–,–
Cc1ncc(Cn2cc(COc3ccc([N+](=O)[O-])cc3Cl)nn2)c(N)n1 [Compound 15],30%,60%,–,80%,44%,57%,60%,–,194 to 196 °C,–,–
Cc1ncc(Cn2nnc(COc3ccc(C#N)cc3)c2I)c(N)n1 [Compound 31],–,–,–,–,–,–,–,58%,199 to 201 °C,–,inhibition of growth at 12.5 µg/g [5]: 78%; inhibition of growth at 25 µg/g [5]: 88%; inhibition of growth at 50 µg/g [5]: 96%; inhibition of growth at 100 µg/g [5]: 97%; inhibition of growth at 100 µg/g (early blight of tomato; Table 6): 70%; inhibition of growth at 12.5 µg/g (gray mold of cucumber): 75%; inhibition of growth at 25 µg/g (gray mold of cucumber): 87%; inhibition of growth at 50 µg/g (gray mold of cucumber): 91%; inhibition of growth at 100 µg/g (gray mold of cucumber; Table 6): 95%
Cc1ncc(Cn2cc(COC(=O)c3ccc([N+](=O)[O-])cc3)nn2)c(N)n1 [Compound 32],–,60%,87%,–,59%,67%,–,–,–,60%,inhibition of growth at 100 µg/g (early blight of tomato; Table 5): 63%
Cc1ncc(Cn2cc(COC(=O)c3ccc(Cl)cc3)nn2)c(N)n1 [Compound 33],–,55%,–,–,61%,–,–,55%,188 to 189 °C,60%,–
Cc1ncc(Cn2cc(COC(=O)c3ccc(F)cc3)nn2)c(N)n1 [Compound 34],–,40%,–,–,63%,–,–,51%,198 to 199 °C,60%,–
Cc1ncc(Cn2cc(COC(=O)c3cc([N+](=O)[O-])cc([N+](=O)[O-])c3)nn2)c(N)n1 [Compound 35],–,50%,75%,–,49%,50%,80%,–,142 to 143 °C,45%,–
Cc1ncc(Cn2cc(COC(=O)c3ccccc3Cl)nn2)c(N)n1 [Compound 36],–,45%,–,–,61%,–,60%,–,85 to 87 °C,60%,–
Cc1ncc(Cn2cc(COC(=O)c3ccccc3F)nn2)c(N)n1 [Compound 37],–,50%,–,–,98%,–,37%,51%,124 to 125 °C,70%,–
Cc1ccc(C(=O)OCc2cn(Cc3cnc(C)nc3N)nn2)cc1 [Compound 38],–,50%,–,–,61%,54%,40%,56%,202 to 203 °C,60%,–
Cc1ncc(Cn2cc(COC(=O)c3cccc(Cl)c3)nn2)c(N)n1 [Compound 39],–,60%,50%,–,84%,52%,10%,–,165 to 166 °C,60%,–
Cc1ncc(Cn2nnc(COc3ccc(F)cc3)c2I)c(N)n1 [Compound 82],–,–,–,–,–,–,–,48%,160 to 162 °C,–,inhibition of growth at 12.5 µg/g [5]: 63%; inhibition of growth at 25 µg/g [5]: 90%; inhibition of growth at 50 µg/g [5]: 100%; inhibition of growth at 100 µg/g [5]: 96%; inhibition of growth at 100 µg/g (early blight of tomato; Table 6): 70%; inhibition of growth at 12.5 µg/g (gray mold of cucumber): 56%; inhibition of growth at 25 µg/g (gray mold of cucumber): 97%; inhibition of growth at 50 µg/g (gray mold of cucumber): 99%; inhibition of growth at 100 µg/g (gray mold of cucumber; Table 6): 96%
Cc1ncc(Cn2nnc(COc3ccc(Br)cc3)c2I)c(N)n1 [Compound 84],–,–,–,–,–,–,–,62%,138 to 140 °C,–,inhibition of growth at 12.5 µg/g [5]: 73%; inhibition of growth at 25 µg/g [5]: 95%; inhibition of growth at 50 µg/g [5]: 97%; inhibition of growth at 100 µg/g [5]: 98%; inhibition of growth at 100 µg/g (early blight of tomato; Table 6): 58%; inhibition of growth at 12.5 µg/g (gray mold of cucumber): 66%; inhibition of growth at 25 µg/g (gray mold of cucumber): 90%; inhibition of growth at 50 µg/g (gray mold of cucumber): 94%; inhibition of growth at 100 µg/g (gray mold of cucumber; Table 6): 93%
Cc1ncc(Cn2nnc(COc3ccccc3Cl)c2I)c(N)n1 [Compound 86],–,–,–,–,–,–,–,62%,168 to 170 °C,–,inhibition of growth at 12.5 µg/g [5]: 37%; inhibition of growth at 25 µg/g [5]: 74%; inhibition of growth at 50 µg/g [5]: 98%; inhibition of growth at 100 µg/g [5]: 99%; inhibition of growth at 100 µg/g (early blight of tomato; Table 6): 60%; inhibition of growth at 12.5 µg/g (gray mold of cucumber): 40%; inhibition of growth at 25 µg/g (gray mold of cucumber): 76%; inhibition of growth at 50 µg/g (gray mold of cucumber): 97%; inhibition of growth at 100 µg/g (gray mold of cucumber; Table 6): 100%
"Nc1nnc([S-])s1.Nc1nnc([S-])s1.[Cu+2] [Thiodiazole-copper, reference compound]",–,–,–,–,–,–,–,–,–,–,"Cucumber bacterial spot (%), controlling effect [1]: 65.89%; Cucumber Angular Leaf Spot Average inhibition rate (%) [2]: 66%"
Zhongshengmycin [reference compound],–,–,–,–,–,–,–,–,–,–,"Downy Mildew of Cucumber Average inhibition rate (%) (Downy Mildew of Cucumber; [6]): 40%; Rice Sheath Blight Disease Average inhibition rate (%) [3, 6]: 50%; Corynespora Leaf Spot of Cucumber Average inhibition rate (%) [4, 6]: 50%; Cucumber bacterial spot (%), controlling effect [1]: 70.69%; Cucumber Angular Leaf Spot Average inhibition rate (%) [2]: 70%"
